# Where a name gives a salt, the structure may show the parent alone. Read-outs that look alike come from different tables or passages of the source.
# Tests used:
# [1] = cited from earlier work
# [2] = From the text: Unless otherwise indicated, “primary particle diameter” can refer to the particle size distribution of a powder in its non-aggregated state. Primary particle diameter can be determined using a laser-diffraction particle size distribution analyzer. In some embodiments, the particle size analyzer can be Mastersizer 2000 manufactured by Malvern Instruments Limited.
# Unless otherwise indicated, “median diameter” can refer to a diameter that divides particles into two groups of equal numbers: a group with greater diameters and a group with smaller diameters. A median diameter can be determined using a laser-diffraction particle size distribution analyzer and can correspond to 50% volume in a determined cumulative particle size distribution curve. In some embodiments, the particle size analyzer can be Mastersizer 2000 manufactured by Malvern Instruments Limited.
# Data Handling • 1. Using Mastersizer 2000 software, combine particle size distribution data obtained for each dispersion pressure. • 2. If necessary, conduct particle size analysis using Wet Dispersion Method. • 3. Choose the optimum dispersion pressure.
# [3] = nasal spray, loading dose 5 mg, normal human subjects; cited from earlier work
# [4] = test system: rats; conditions: intramuscular administration in rats; cited from earlier work
# [5] = test system: rabbits; conditions: inhalation in rabbits; cited from earlier work
# [6] = test system: MUS; conditions: in vivo; cited from earlier work
# [7] = Dry Dispersion Method, dispersion air pressure 0.5 bar
# [8] = Dry Dispersion Method, dispersion air pressure 1.0 bar
# [9] = Dry Dispersion Method, dispersion air pressure 2.0 bar
# [10] = Dry Dispersion Method, dispersion air pressure 3.0 bar
# [11] = Dry Dispersion Method, dispersion air pressure 4.0 bar
smiles,measurement,setting,value
"C[C@H](CCC(=O)NCCS(=O)(=O)O)[C@H]1CC[C@H]2[C@@H]3CC[C@@H]4C[C@H](O)CC[C@]4(C)[C@H]3C[C@H](O)[C@]12C [bile salts, taurodeoxycholic acid]",nasal mucosal tissue damage,[1]; used as mucosal permeation enhancers (1% taurodeoxycholic acid),severe nasal mucosal tissue damage
CNC[C@H](O)c1ccc(O)c(O)c1 [epinephrine],Volume under 10%,[2]; [7],17.8 μm
same,Volume under 50%,[2]; [7],29.1 μm
same,Volume under 90%,[2]; [7],45.9 μm
same,Volume under 10%,[2]; [8],15.5 μm
same,Volume under 50%,[2]; [8],27.2 μm
same,Volume under 90%,[2]; [8],43.6 μm
same,Volume under 10%,[2]; [9],4.8 μm
same,Volume under 50%,[2]; [9],22.6 μm
same,Volume under 90%,[2]; [9],41.8 μm
same,Volume under 10%,[2]; [10],2.7 μm
same,Volume under 50%,[2]; [10],18.8 μm
same,Volume under 90%,[2]; [10],38.6 μm
same,Volume under 10%,[2]; [11],2.4 μm
same,Volume under 50%,[2]; [11],18.2 μm
same,Volume under 90%,[2]; [11],38.3 μm
same,Volume under 10%,[2]; Wet Dispersion Method,18.1 μm
same,Volume under 50%,[2]; Wet Dispersion Method,31.2 μm
same,Volume under 90%,[2]; Wet Dispersion Method,50.7 μm
same,greatest epinephrine plasma concentrations,"[1]; intranasal 7.5 mg/kg/nostril of epinephrine after […] of phentolamine, dog","~1,400 ng/mL"
same,Tmax (peak plasma concentration reached),[3],1.17 ± 0.283 h
same,LD50,[4],3500 mg/kg
same,LD50,[5],2.5 mg/kg
Cc1ccc(N(CC2=NCCN2)c2cccc(O)c2)cc1 [phentolamine],IVN-MUS LD50,[6],75 mg/kg

# From US20160220489A1, “Intranasal Formulation for the Treatment of Cardiopulmonary Resuscitation (CPR), Cardiac Life Support (CLS), Anaphylaxis and/or Anaphylactoid Reactions” (G2B Pharma Inc., priority 2013, published 2016)
